Strand notation (5' to 3'): a small letter for the sugar, then the base; units joined by * are phosphorothioate-linked, units joined directly phosphodiester-linked; [ ] holds rarer units or linkages, { } end groups; capitals alone tell only the bases. k = constrained ethyl (cEt); [5mC] = 5-methylcytosine; d = 2'-deoxy (DNA)
Test system: Yap1 mRNA
Assay: Antisense inhibition of human Yap1 in A-431 cells by cEt gapmers, single dose (Example 2, RTS4814)
Type: cell-based
How it was run: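 Free uptake, 2,000 nM, ~48 h, A-431 at 5,000 cells/well. Readout: RT-qPCR (RTS4814), RIBOGREEN-normalized, % UTC. 16-mer 3-10-3 cEt gapmers, full PS backbone, all C as 5-methylcytosine.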

[1] = Table 21, Yap1 mRNA, percent of untreated control, 3-10-3 cEt gapmers targeting SEQ ID NO.: 1 and 2
[2] = Table 25, Yap1 mRNA as percent of untreated control, 3-10-3 cEt gapmers targeting SEQ ID NO.: 1, and 2
[3] = Yap1 mRNA as percent of untreated control, A-431 cells, 3-10-3 cEt gapmers targeting SEQ ID NO.: 1, and 2, Table 31
[4] = A-431 cells, 5,000 cells per well, free uptake, 2,000 nM modified oligonucleotide, approx. 48 hours, RTS4814, normalized to RIBOGREEN, Table 4, asterisk (*) = targets amplicon region of primer probe set
[5] = Table 20, Yap1 mRNA, percent of untreated control, 3-10-3 cEt gapmers targeting SEQ ID NO.: 1 and 2
[6] = Table 5, A-431 cells, 5,000 cells per well, free uptake, 2,000 nM modified oligonucleotide, approx. 48 hours, RTS4814, normalized to RIBOGREEN, Yap1 mRNA relative to untreated control cells
[7] = Table 24, Yap1 mRNA as percent of untreated control, 3-10-3 cEt gapmers targeting SEQ ID NO.: 1, and 2
[8] = Table 6, A-431 cells, 5,000 cells per well, free uptake, 2,000 nM modified oligonucleotide, approx. 48 hours, RTS4814, normalized to RIBOGREEN, Yap1 mRNA relative to untreated control cells
[9] = Yap1 mRNA as percent of untreated control, A-431 cells, 3-10-3 cEt gapmers targeting SEQ ID NO.: 1, and 2, Table 30
[10] = Table 19, A-431 cells, 5,000 cells per well, free uptake, 2,000 nM modified oligonucleotide, approx. 48 hours, RTS4814, normalized to RIBOGREEN, Yap1 mRNA as percent of untreated control
[11] = Table 18, A-431 cells, 5,000 cells per well, free uptake, 2,000 nM modified oligonucleotide, approx. 48 hours, RTS4814, normalized to RIBOGREEN, Yap1 mRNA as percent of untreated control
[12] = Table 22, Yap1 mRNA as percent of untreated control, 3-10-3 cEt gapmers, single dose

1076423 (k[5mC]*k[5mC]*kT*dG*dA*dA*d[5mC]*d[5mC]*dT*dT*d[5mC]*dT*dG*kG*kA*kT; antisense) [Compound 1076423]
YAP1 (% UTC) [1]: 93 % UTC

1075563 (k[5mC]*k[5mC]*kA*dT*dA*dT*dA*dA*d[5mC]*d[5mC]*dA*dG*dT*kT*kT*kT; antisense) [Compound 1075563]
YAP1 (% UTC) [2]: 12 % UTC

1076529 (k[5mC]*kT*kA*dT*dA*dA*dT*dG*dA*dG*dG*dA*dT*kT*kA*k[5mC]; antisense) [compound 1076529]
YAP1 (% UTC) [3]: 108 % UTC

1074183 (antisense k[5mC]*k[5mC]*kG*dG*dT*dT*dG*dA*dG*dG*d[5mC]*dG*dG*k[5mC]*kG*kG) [Compound 1074183]
YAP1 (% UTC) [1]: 90 % UTC

716418 (k[5mC]*k[5mC]*kT*dG*dA*dG*dG*dG*d[5mC]*dT*d[5mC]*dT*dA*kT*kA*kA; antisense) [Compound 716418]
YAP1 (% UTC) [4]: 75 % UTC

1075654 (kT*kA*kT*dT*dA*dA*dG*dA*d[5mC]*dG*dA*dA*dT*k[5mC]*k[5mC]*kA; antisense) [Compound 1075654]
YAP1 (% UTC) [5]: 76 % UTC

716434 (kT*kA*kA*dA*dT*dG*d[5mC]*dT*dG*dT*dG*dA*d[5mC]*kA*kT*kG; antisense) [Compound 716434]
YAP1 (% UTC) [6]: 44 % UTC

1074122 (antisense k[5mC]*kT*kG*d[5mC]*dG*dA*dG*dG*d[5mC]*dA*d[5mC]*dT*d[5mC]*kG*kG*kA) [Compound 1074122]
YAP1 (% UTC) [7]: 73 % UTC

716459 (k[5mC]*kG*k[5mC]*dT*dA*d[5mC]*d[5mC]*dA*dT*dT*dT*dT*dA*kA*kA*kA; antisense) [Compound 716459]
YAP1 (% UTC) [8]: 121 % UTC

1075472 (kG*kA*kT*dT*dA*dT*dA*dG*dT*dT*dA*dA*dA*k[5mC]*kA*kG; antisense) [compound 1075472]
YAP1 (% UTC) [9]: 92 % UTC

1075846 (kG*kA*kT*dT*dA*dA*dG*dA*dG*d[5mC]*d[5mC]*dT*dA*kT*k[5mC]*kT; antisense) [Compound 1075846]
YAP1 (% UTC) [5]: 96 % UTC

1074855 (antisense kG*kT*kG*d[5mC]*dA*dT*dT*dA*dA*dA*dG*dA*dA*kT*kT*k[5mC]) [Compound 1074855]
YAP1 (% UTC) [1]: 29 % UTC

1074757 (kA*kG*kT*dT*dA*dA*dG*d[5mC]*dA*d[5mC]*dT*dT*dT*kT*kA*k[5mC]; antisense) [Compound 1074757]
YAP1 (% UTC) [10]: 21 % UTC

1074928 (antisense kA*kT*kA*d[5mC]*dA*dA*d[5mC]*dA*dG*dG*d[5mC]*d[5mC]*dT*kG*k[5mC]*kA) [compound 1074928]
YAP1 (% UTC) [9]: 83 % UTC

1076016 (kT*kA*kA*dT*dA*dG*dG*dA*dT*dG*dG*dA*dT*kT*k[5mC]*kT; antisense) [compound 1076016]
YAP1 (% UTC) [9]: 8 % UTC

1075954 (kA*kT*kT*dT*dA*dA*dG*dG*d[5mC]*dT*dG*dT*dG*kT*kT*k[5mC]; antisense) [compound 1075954]
YAP1 (% UTC) (Table 32, Yap1 mRNA, percent of untreated control, 3-10-3 cEt gapmers targeting SEQ ID NO.: 1, and 2): 50 % UTC

1076395 (kG*kT*kA*dA*d[5mC]*dT*dA*dA*d[5mC]*d[5mC]*dT*dA*dA*kG*kG*kA; antisense) [Compound 1076395]
YAP1 (% UTC) [2]: 34 % UTC

716484 (k[5mC]*kA*k[5mC]*dT*dT*dT*dT*d[5mC]*d[5mC]*dA*dG*d[5mC]*dT*kA*kA*k[5mC]; antisense) [Compound 716484]
YAP1 (% UTC) [4]: 35 % UTC

1075889 (antisense kA*kT*kT*dA*dA*dA*dA*dG*dT*dA*dG*dG*d[5mC]*k[5mC]*k[5mC]*kT) [compound 1075889]
YAP1 (% UTC) [3]: 71 % UTC

1075044 (antisense kA*kA*kT*dT*dA*dG*dA*d[5mC]*dT*d[5mC]*d[5mC]*d[5mC]*d[5mC]*k[5mC]*kA*kA) [Compound 1075044]
YAP1 (% UTC) [11]: 58 % UTC

1075652 (kG*kT*kA*dT*dA*dT*dT*dA*d[5mC]*dA*dA*dT*d[5mC]*k[5mC]*k[5mC]*kA; antisense) [Compound 1075652]
YAP1 (% UTC) [11]: 40 % UTC

1075466 (antisense kT*k[5mC]*k[5mC]*dA*dA*dA*dA*dA*d[5mC]*d[5mC]*dA*dT*d[5mC]*kA*kG*kT) [Compound 1075466]
YAP1 (% UTC) [7]: 28 % UTC

1075815 (kG*kT*kA*dT*dA*dA*dA*dG*d[5mC]*dA*dG*dG*dG*k[5mC]*kA*kT; antisense) [Compound 1075815]
YAP1 (% UTC) [1]: 36 % UTC

716475 (k[5mC]*kT*kT*d[5mC]*d[5mC]*dA*dA*dA*dA*d[5mC]*dT*dA*dA*kG*kG*k[5mC]; antisense) [Compound 716475]
YAP1 (% UTC) [4]: 63 % UTC

716507 (antisense kA*k[5mC]*kT*dA*d[5mC]*dT*d[5mC]*dT*dA*dA*dA*dA*d[5mC]*kT*k[5mC]*k[5mC]) [Compound 716507]
YAP1 (% UTC) [8]: 53 % UTC

716362 (kA*kG*kG*d[5mC]*dG*dG*d[5mC]*dT*dG*d[5mC]*d[5mC]*d[5mC]*dT*kT*kG*kG; antisense) [Compound 716362]
YAP1 (% UTC) [6]: 94 % UTC

1075656 (kA*kA*kA*dA*d[5mC]*dG*dG*dT*dT*dT*dT*dT*d[5mC]*kT*kA*kA; antisense) [Compound 1075656]
YAP1 (% UTC) [12]: 103 % UTC

1075408 (antisense k[5mC]*kT*kA*dA*dA*dA*dT*dG*dG*d[5mC]*dA*dT*dA*kA*kG*kG) [compound 1075408]
YAP1 (% UTC) [9]: 23 % UTC

1075589 (kA*kA*kT*dT*dA*dG*d[5mC]*dA*dG*dG*dG*d[5mC]*dA*kG*kA*k[5mC]; antisense) [Compound 1075589]
YAP1 (% UTC) [10]: 84 % UTC

1075627 (kA*kT*kA*dA*dG*dA*dT*dA*dG*dT*d[5mC]*dG*dG*kT*kT*k[5mC]; antisense) [Compound 1075627]
YAP1 (% UTC) [2]: 19 % UTC

716448 (k[5mC]*k[5mC]*kG*dA*d[5mC]*dA*dA*dA*dA*d[5mC]*d[5mC]*dA*dA*k[5mC]*k[5mC]*kA; antisense) [Compound 716448]
YAP1 (% UTC) [4]: 62 % UTC

1076275 (kG*kT*kA*dT*dT*dA*dG*dA*dT*dA*dA*dA*dG*k[5mC]*kA*kG; antisense) [compound 1076275]
YAP1 (% UTC) (Table 33, Yap1 mRNA, percent of untreated control, 3-10-3 cEt gapmers targeting SEQ ID NO.: 1, and 2): 10 % UTC

1074374 (antisense kT*kG*k[5mC]*dT*dT*dT*dG*dG*dT*dT*dG*dA*dT*kA*kG*kT) [Compound 1074374]
YAP1 (% UTC) [5]: 13 % UTC

1075173 (antisense k[5mC]*kT*kT*dT*dA*dG*dG*dG*d[5mC]*dA*dA*d[5mC]*dT*kG*kT*kA) [Compound 1075173]
YAP1 (% UTC) [10]: 22 % UTC

716520 (antisense kA*kG*kT*d[5mC]*dT*dT*dT*dA*dT*dT*dA*dA*dA*kG*kA*kG) [Compound 716520]
YAP1 (% UTC) [4]: 96 % UTC

1075312 (antisense kT*kT*kA*dA*dT*dT*dG*dA*dA*d[5mC]*dT*d[5mC]*dA*kG*kG*kG) [compound 1075312]
YAP1 (% UTC) [9]: 37 % UTC

716479 (kG*kA*kA*d[5mC]*dA*dA*dT*d[5mC]*dT*dT*dG*dA*dA*kG*kG*k[5mC]; antisense) [Compound 716479]
YAP1 (% UTC) [6]: 32 % UTC

1074692 (antisense k[5mC]*k[5mC]*k[5mC]*d[5mC]*d[5mC]*d[5mC]*d[5mC]*dA*dA*dA*d[5mC]*dT*dT*kT*k[5mC]*k[5mC]) [Compound 1074692]
YAP1 (% UTC) [11]: 101 % UTC

716419 (kT*kT*kT*d[5mC]*d[5mC]*dG*dG*dT*dG*d[5mC]*dA*dT*dG*kT*kG*kT; antisense) [Compound 716419]
YAP1 (% UTC) [6]: 36 % UTC

1075556 (kT*kG*kG*d[5mC]*dA*dA*dA*dA*dG*dA*dG*dT*dG*kG*kT*kG; antisense) [Compound 1075556]
YAP1 (% UTC) [11]: 68 % UTC

1075461 (antisense k[5mC]*kT*kA*dA*dA*dT*dA*dA*d[5mC]*d[5mC]*dA*dA*dG*kG*kA*kT) [Compound 1075461]
YAP1 (% UTC) [10]: 64 % UTC

716487 (kA*k[5mC]*kA*d[5mC]*dA*dT*dA*d[5mC]*dT*d[5mC]*dT*dA*dG*kT*kT*kA; antisense) [Compound 716487]
YAP1 (% UTC) [4]: 64 % UTC

1074289 (antisense kT*kG*kA*d[5mC]*dT*dG*dA*dT*dT*d[5mC]*dT*d[5mC]*dT*kG*kG*kT) [compound 1074289]
YAP1 (% UTC) [3]: 13 % UTC

1075601 (antisense kA*k[5mC]*kA*d[5mC]*dT*dA*dT*dA*dA*dT*d[5mC]*dT*dG*kA*k[5mC]*k[5mC]) [compound 1075601]
YAP1 (% UTC) [3]: 50 % UTC

1074891 (antisense kT*kG*kA*dA*dG*dT*dT*dT*dA*dG*d[5mC]*d[5mC]*dT*kG*kA*kA) [Compound 1074891]
YAP1 (% UTC) [2]: 31 % UTC

1076424 (kA*k[5mC]*kT*dT*dA*dA*d[5mC]*d[5mC]*dT*dG*dA*d[5mC]*dA*kG*k[5mC]*kT; antisense) [Compound 1076424]
YAP1 (% UTC) [12]: 76 % UTC

— patent US11214803B2, “Modulators of YAP1 expression” (Ionis Pharmaceuticals, Inc., priority 2019, dated 2022)
